Test results: patent US20090068290A1, “BIFEPRUNOX DOSES FOR TREATING SCHIZOPHRENIA” (priority 2006, published 2009)

Experiments:
Format in all cases: in vivo, human
[1] = system: adult subjects with schizophrenia; experiment: CGI Severity of Illness score, Clinical Study One; set-up: Change from Baseline in CGI Severity of Illness Score, Median: scale not given here; details: for Change from Baseline in CGI Severity of Illness Score, Mean (S.D.) / Change from Baseline in CGI Severity of Illness Score, Median / Change from Baseline in CGI Severity of Illness Score, Trt Effect (bifeprunox—placebo): ITT population
Method: (§1) There were five treatment groups in this study. […] Study medication was administered once daily. After Baseline measurements were performed, the titration phase was begun. Bifeprunox treated subjects were titrated up to 5 mg, 10 mg or 20 mg according to a standardized titration schedule (Day 1: 0.125 mg, Day 2: 0.25 mg, Day 3: 0.5 mg, Day 4: 1.0 mg, Day 5: 2.0 mg, Day 6: 5.0 mg, Day 7: 10.0 mg, Day 8: 20 mg). When the assigned dose was reached, subjects were maintained at that dose for the remainder of the six-week treatment period.
The change in the Positive and Negative Symptom Scale (PANSS) total score, from baseline to endpoint, was the primary outcome measure. Secondary efficacy measures included: PANSS positive, PANSS negative, PANSS general psychopathology (GPP) score, PANSS-derived Brief Psychiatric Rating Scale (BPRS) score, Clinical Global Impressions-Severity of Illness (CGI-S), CGI-Improvement (CGI-I) scores, and responder rates. Safety and tolerability evaluations included extrapyramidal symptoms (EPS), weight gain, lipid profile, and serum prolactin.

[2] = system: adult subjects with schizophrenia; experiment: CGI responder rate, Clinical Study One
Method: as §1
CLINICAL STUDY ONE: A CGI responder is defined as a subject who is categorized as “very much improved” or “much improved” on the CGI Improvement scale.

[3] = system: adult subjects with schizophrenia; experiment: BPRS psychosis cluster score, Clinical Study Two; details: for Change from Baseline in BPRS Psychosis Cluster Score, Mean (SD) / Change from Baseline in BPRS Psychosis Cluster Score, Median / Change from Baseline in BPRS Psychosis Cluster Score, Trt Effect (bifeprunox—placebo) / mean change (SD) from Baseline to Endpoint in BPRS psychosis cluster score: LOCF; for Change from Baseline in BPRS Psychosis Cluster Score, Mean (SD) / Change from Baseline in BPRS Psychosis Cluster Score, Median / Change from Baseline in BPRS Psychosis Cluster Score, Trt Effect (bifeprunox—placebo): ITT population; for BPRS psychosis cluster score, treatment effect (bifeprunox—placebo): Endpoint LOCF; for mean change (SD) from Baseline to Endpoint in BPRS psychosis cluster score: ITT
Method: (§2) Rating scale assessments were performed weekly, except for week 5, to measure the change from baseline to endpoint of the PANSS total score. Other assessments included: PANSS positive symptom subscale score, PANSS negative symptom subscale score, PANSS general pschopathology subscale score, BPRS total score, BPRS psychosis score, the CGI-S score, the CGI-I score, responder rates based on the PANSS total score, and the Calgary Depression Scale for Schizophrenia (CDSS). […]
(§3) Subjects who completed this study had the option to continue in the long-term. […] Risperidone-treated subjects were titrated from 2 mg to 6 mg daily over a three-day period and were subsequently maintained at 6 mg/day for the remainder of the treatment period. […] Blood samples were also obtained at Screening/Baseline, Week 3, and Week 6 for clinical laboratory assessments.

[4] = system: adult subjects with schizophrenia; experiment: CGI Severity of Illness score, Clinical Study Two; details: Bifeprunox 30 mg, LOCF, ITT population
Method: as §2, §3

[5] = Bifeprunox 10 mg, Endpoint LOCF
[6] = Bifeprunox 20 mg, Endpoint LOCF
[7] = Bifeprunox 30 mg, Week 6/Endpoint
[8] = Bifeprunox 40 mg, Week 6/Endpoint

Structure (SMILES): O=c1[nH]c2cccc(N3CCN(Cc4cccc(-c5ccccc5)c4)CC3)c2o1 [Bifeprunox, 7-[4-([1,1′-biphenyl]-3-ylmethyl)-1-piperazinyl]-2(3H)-benzoxazolone]
- CGI severity of illness score, treatment effect (bifeprunox—placebo) ([1]; Bifeprunox 5 mg, Endpoint LOCF): −0.31
- Change from Baseline in CGI Severity of Illness Score, Mean (S.D.) ([1]; Bifeprunox 5 mg, Endpoint LOCF): −0.58 (1.10)
- Change from Baseline in CGI Severity of Illness Score, Median ([1]; Bifeprunox 5 mg, Endpoint LOCF): 0.0
- Change from Baseline in CGI Severity of Illness Score, Trt Effect (bifeprunox—placebo) ([1]; Bifeprunox 5 mg, Endpoint LOCF): −0.31
- Change from Baseline in CGI Severity of Illness Score, Mean (S.D.) ([1]; Bifeprunox 5 mg, Week 1, LOCF): −0.18 (0.68)
- Change from Baseline in CGI Severity of Illness Score, Median ([1]; Bifeprunox 5 mg, Week 1, LOCF): 0.0
- Change from Baseline in CGI Severity of Illness Score, Mean (S.D.) ([1]; Bifeprunox 5 mg, Week 2, LOCF): −0.37 (0.83)
- Change from Baseline in CGI Severity of Illness Score, Median ([1]; Bifeprunox 5 mg, Week 2, LOCF): 0.0
- Change from Baseline in CGI Severity of Illness Score, Mean (S.D.) ([1]; Bifeprunox 5 mg, Week 3, LOCF): −0.47 (0.90)
- Change from Baseline in CGI Severity of Illness Score, Median ([1]; Bifeprunox 5 mg, Week 3, LOCF): 0.0
- Change from Baseline in CGI Severity of Illness Score, Mean (S.D.) ([1]; Bifeprunox 5 mg, Week 4, LOCF): −0.52 (1.01)
- Change from Baseline in CGI Severity of Illness Score, Median ([1]; Bifeprunox 5 mg, Week 4, LOCF): 0.0
- CGI severity of illness score, treatment effect (bifeprunox—placebo) [1, 5]: 0.12
- Change from Baseline in CGI Severity of Illness Score, Mean (S.D.) [1, 5]: −0.18 (1.04)
- Change from Baseline in CGI Severity of Illness Score, Median [1, 5]: 0.0
- Change from Baseline in CGI Severity of Illness Score, Trt Effect (bifeprunox—placebo) [1, 5]: 0.12
- Change from Baseline in CGI Severity of Illness Score, Mean (S.D.) ([1]; Bifeprunox 10 mg, Week 1, LOCF): 0.13 (0.75)
- Change from Baseline in CGI Severity of Illness Score, Median ([1]; Bifeprunox 10 mg, Week 1, LOCF): 0.0
- Change from Baseline in CGI Severity of Illness Score, Mean (S.D.) ([1]; Bifeprunox 10 mg, Week 2, LOCF): −2.3 (0.92)
- Change from Baseline in CGI Severity of Illness Score, Median ([1]; Bifeprunox 10 mg, Week 2, LOCF): 0.0
- Change from Baseline in CGI Severity of Illness Score, Mean (S.D.) ([1]; Bifeprunox 10 mg, Week 3, LOCF): −0.22 (1.01)
- Change from Baseline in CGI Severity of Illness Score, Median ([1]; Bifeprunox 10 mg, Week 3, LOCF): 0.0
- Change from Baseline in CGI Severity of Illness Score, Mean (S.D.) ([1]; Bifeprunox 10 mg, Week 4, LOCF): −0.16 (0.99)
- Change from Baseline in CGI Severity of Illness Score, Median ([1]; Bifeprunox 10 mg, Week 4, LOCF): 0.0
- Change from Baseline in CGI Severity of Illness Score, Mean (S.D.) [1, 6]: −0.52 (0.96)
- Change from Baseline in CGI Severity of Illness Score, Median [1, 6]: 0.0
- Change from Baseline in CGI Severity of Illness Score, Trt Effect (bifeprunox—placebo) [1, 6]: −0.19
- Change from Baseline in CGI Severity of Illness Score, Mean (S.D.) ([1]; Bifeprunox 20 mg, Week 1, LOCF): −0.31 (0.74)
- Change from Baseline in CGI Severity of Illness Score, Median ([1]; Bifeprunox 20 mg, Week 1, LOCF): 0.0
- Change from Baseline in CGI Severity of Illness Score, Mean (S.D.) ([1]; Bifeprunox 20 mg, Week 2, LOCF): −0.50 (0.85)
- Change from Baseline in CGI Severity of Illness Score, Median ([1]; Bifeprunox 20 mg, Week 2, LOCF): 0.0
- Change from Baseline in CGI Severity of Illness Score, Mean (S.D.) ([1]; Bifeprunox 20 mg, Week 3, LOCF): −0.57 (0.90)
- Change from Baseline in CGI Severity of Illness Score, Median ([1]; Bifeprunox 20 mg, Week 3, LOCF): 0.0
- Change from Baseline in CGI Severity of Illness Score, Mean (S.D.) ([1]; Bifeprunox 20 mg, Week 4, LOCF): −0.57 (0.89)
- Change from Baseline in CGI Severity of Illness Score, Median ([1]; Bifeprunox 20 mg, Week 4, LOCF): 0.0
- CGI severity of illness score, treatment effect (bifeprunox—placebo) ([1]; bifeprunox 20 mg, Endpoint LOCF): −0.19
- CGI Responder at Endpoint (LOCF), % ([2]; 5 mg): 33%
- CGI Responder at Endpoint (LOCF), % ([2]; 10 mg): 19%
- CGI Responder at Endpoint (LOCF), % ([2]; 20 mg): 25%
- Change from Baseline in BPRS Psychosis Cluster Score, Mean (SD) ([3]; Bifeprunox 30 mg, Week 1): −1.7 (2.3)
- Change from Baseline in BPRS Psychosis Cluster Score, Median ([3]; Bifeprunox 30 mg, Week 1): −1
- Change from Baseline in BPRS Psychosis Cluster Score, Median ([3]; Bifeprunox 30 mg, Week 2): −2
- Change from Baseline in BPRS Psychosis Cluster Score, Mean (SD) ([3]; Bifeprunox 30 mg, Week 3): −3.1 (3.8)
- Change from Baseline in BPRS Psychosis Cluster Score, Median ([3]; Bifeprunox 30 mg, Week 3): −2
- Change from Baseline in BPRS Psychosis Cluster Score, Mean (SD) ([3]; Bifeprunox 30 mg, Week 4): −3.1 (3.8)
- Change from Baseline in BPRS Psychosis Cluster Score, Median ([3]; Bifeprunox 30 mg, Week 4): −3
- Change from Baseline in BPRS Psychosis Cluster Score, Mean (SD) [3, 7]: −3.2 (4.2)
- Change from Baseline in BPRS Psychosis Cluster Score, Median [3, 7]: −3
- Change from Baseline in BPRS Psychosis Cluster Score, Trt Effect (bifeprunox—placebo) [3, 7]: −1.4
- Change from Baseline in BPRS Psychosis Cluster Score, Mean (SD) ([3]; Bifeprunox 40 mg, Week 1): −1.7 (2.6)
- Change from Baseline in BPRS Psychosis Cluster Score, Median ([3]; Bifeprunox 40 mg, Week 1): −1
- Change from Baseline in BPRS Psychosis Cluster Score, Mean (SD) ([3]; Bifeprunox 40 mg, Week 2): −2.2 (3.5)
- Change from Baseline in BPRS Psychosis Cluster Score, Median ([3]; Bifeprunox 40 mg, Week 2): −2
- Change from Baseline in BPRS Psychosis Cluster Score, Mean (SD) ([3]; Bifeprunox 40 mg, Week 3): −2.5 (4.0)
- Change from Baseline in BPRS Psychosis Cluster Score, Median ([3]; Bifeprunox 40 mg, Week 3): −2
- Change from Baseline in BPRS Psychosis Cluster Score, Mean (SD) ([3]; Bifeprunox 40 mg, Week 4): −2.5 (4.2)
- Change from Baseline in BPRS Psychosis Cluster Score, Median ([3]; Bifeprunox 40 mg, Week 4): −1
- Change from Baseline in BPRS Psychosis Cluster Score, Mean (SD) [3, 8]: −2.6 (4.4)
- Change from Baseline in BPRS Psychosis Cluster Score, Median [3, 8]: −2
- Change from Baseline in BPRS Psychosis Cluster Score, Trt Effect (bifeprunox—placebo) [3, 8]: −1.0
- BPRS psychosis cluster score, treatment effect (bifeprunox—placebo) ([3]; bifeprunox 30 mg): −1.4
- mean change (SD) from Baseline to Endpoint in BPRS psychosis cluster score ([3]; bifeprunox 30 mg): −3.2 (4.2)
- BPRS psychosis cluster score, treatment effect (bifeprunox—placebo) ([3]; bifeprunox 40 mg): −1.0
- mean change (SD) from Baseline to Endpoint in BPRS psychosis cluster score ([3]; bifeprunox 40 mg): −2.6 (4.4)
- Change from Baseline in CGI Severity of Illness Score, Mean (SD) ([4]; Week 1): −0.33 (0.77)
- Change from Baseline in CGI Severity of Illness Score, Median ([4]; Week 1): 0.0
- Change from Baseline in CGI Severity of Illness Score, Mean (SD) ([4]; Week 2): −0.58 (0.97)
- Change from Baseline in CGI Severity of Illness Score, Median ([4]; Week 2): 0.0
- Change from Baseline in CGI Severity of Illness Score, Mean (SD) ([4]; Week 3): −0.67 (1.08)
- Change from Baseline in CGI Severity of Illness Score, Median ([4]; Week 3): 0.0
- Change from Baseline in CGI Severity of Illness Score, Mean (SD) ([4]; Week 4): −0.68 (1.11)
- Change from Baseline in CGI Severity of Illness Score, Median ([4]; Week 4): 0.0
